Here are results for 19 compounds from patent publication US8394774B2, “Pesticidal compositions” (Dow AgroSciences, LLC., priority 2009, dated 2013).

Molecules are shown by their SMILES. Read-outs that look alike come from different tables or passages of the source.

In assay [1] the test system is beet armyworm (BAW; Spodoptera exigua: Lepidoptera). Nature of the assay: 128-well diet tray assay on beet armyworm (BAW 50). It counts as in vivo. The note with it: 144 h, read-out: BAW 50. Here is the method: (§1) Bioassays on beet armyworm (BAW; Spodoptera exigua: Lepidoptera) were conducted using either a 96-well microtiter plate-based high throughput (HTS) bioassay or a 128-well diet tray assay. The HTS assay is based on a modification of Lewer et al. J. Nat. Prod. 2006, 69, 1506. BAW eggs were placed on top of artificial diet (100 μL) in each well of a 96-well microtiter plate. The diet was pretreated with test compounds (12 μg dissolved in 30 μL of DMSO-acetone-H2O mixture) layered on top of the diet using a liquid handling system and then allowed to dry for several hours. Infested plates were then covered with a layer of sterile cotton batting and the plate lid, and then held in the dark at 29° C. Mortality was recorded at 6 days post-treatment. Each plate had six replicates. The percent mortality was calculated from the average of the six replicates. In the case of the 128-well diet assay, three to five second instar BAW larvae were placed in each well (3 mL) of the diet tray that had been previously filled with 1 mL of artificial diet to which 50 ug/cm^2 of the test compound (dissolved in 50 μL of 90:10 acetone-water mixture) had been applied (to each of eight wells) and then allowed to dry. Trays were covered with a clear self-adhesive cover, and held at 25° C., 14:10 light-dark for six days. Percent mortality was recorded for the larvae in each well; activity in the eight wells was then averaged. In Table 4, under both the BAW HTS and BAW 50 headings, an “A” means that the compound was tested and at least 50 percent mortality was observed whereas, “B” means that either (1) the compound was tested and less than 50 percent mortality was observed or (2) the compound was not tested.

The test system is the same in assay [2]. The assay is described as follows: 96-well microtiter plate-based high throughput (HTS) bioassay on beet armyworm (BAW HTS). It counts as in vivo. The following applies: 144 h, read-out: BAW HTS. How it is done: as §1
The mark [3] stands for this setting: percent mortality, 128-well diet assay, 50 ug/cm^2 of test compound on diet, second instar BAW larvae, six days, 25° C., average of eight wells.
Setting [4] is: percent mortality, 96-well HTS, 12 μg test compound on diet, BAW eggs, 6 days post-treatment, 29° C., average of six replicates.

Consider `CCCO[C@@H]1[C@@H](OC)[C@H](C)O[C@@H](O/N=C/c2ccc(/C=C/c3ccc(OC(F)(F)F)cc3)cc2)[C@@H]1OC` [Compound 1, 4-[(E)-2-(4-trifluoromethoxyphenyl)-vinyl]-benzaldehyde O-((2S,3R,4R,5S,6S)-3,5-dimethoxy-6-methyl-4-propoxy-tetrahydropyran-2-yl)-oxime], for which, in assay [1] (setting [3]), the pest or weed control at 50 µg/cm2, 50 µg/cm2 is greater than 50%. The pest or weed control at 12 µg/well, 12 µg/well in assay [2] (setting [4]) was greater than 50%.

In the case of `CCO[C@@H]1[C@@H](OC)[C@H](C)O[C@@H](O/N=C/c2ccc(/C=C/c3ccc(C(F)(F)F)cc3)cc2)[C@@H]1OC` [Compound 2, 4-[(E)-2-(4-Trifluoromethylphenyl)-vinyl]-benzaldehyde O-((2S,3R,4R,5S,6S)-4-ethoxy-3,5-dimethoxy-6-methyl-tetrahydropyran-2-yl)-oxime], the pest or weed control at 50 µg/cm2, 50 µg/cm2 in assay [1] (setting [3]) was greater than 50%. In addition, in assay [2] (setting [4]), the pest or weed control at 12 µg/well, 12 µg/well is greater than 50%.

On to `CCO[C@@H]1[C@@H](OC)[C@H](C)O[C@@H](O/N=C/c2ccc(/C=C/c3ccc(C(F)(F)C(F)(F)OC(F)(F)C(F)(F)C(F)(F)F)cc3)cc2)[C@@H]1OC` [Compound 3], for which the pest or weed control at 50 µg/cm2, 50 µg/cm2 in assay [1] (setting [3]) was less than 50%. Also, in assay [2] (setting [4]), the pest or weed control at 12 µg/well, 12 µg/well is less than 50%.

For the compound `CCO[C@@H]1[C@@H](OC)[C@H](C)O[C@@H](O/N=C/c2ccc(/C=C/c3ccc(C(C)=O)cc3)cc2)[C@@H]1OC` [Compound 4, 4-[(E)-2-(4-Acetyl-phenyl)-vinyl]-benzaldehyde O-((2S,3R,4R,5S,6S)-4-ethoxy-3,5-dimethoxy-6-methyl-tetrahydropyran-2-yl)-oxime], the pest or weed control at 50 µg/cm2, 50 µg/cm2 in assay [1] (setting [3]) was less than 50%. Also, in assay [2] (setting [4]), the pest or weed control at 12 µg/well, 12 µg/well is less than 50%.

Regarding `CCO[C@@H]1[C@@H](OC)[C@H](C)O[C@@H](O/N=C/c2ccc(/C=C/c3ccc(OC(F)(F)F)cc3)cc2)[C@@H]1OC` [Compound 5, 4-[(E)-2-(4-Trifluoromethoxyphenyl)-vinyl]-benzaldehyde O-((2S,3R,4R,5S,6S)-4-ethoxy-3,5-dimethoxy-6-methyl-tetrahydropyran-2-yl)-oxime], in assay [1] (setting [3]), the pest or weed control at 50 µg/cm2, 50 µg/cm2 was greater than 50%. Also, the pest or weed control at 12 µg/well, 12 µg/well in assay [2] (setting [4]) is less than 50%.

Take `CCO[C@@H]1[C@@H](OC)[C@H](C)O[C@@H](O/N=C/c2ccc(/C=C/c3cccc(C(F)(F)F)c3)cc2)[C@@H]1OC` [Compound 6, 4-[(E)-2-(3-Trifluoromethylphenyl)-vinyl]-benzaldehyde O-((2S,3R,4R,5S,6S)-4-ethoxy-3,5-dimethoxy-6-methyl-tetrahydropyran-2-yl)-oxime]: the pest or weed control at 50 µg/cm2, 50 µg/cm2 in assay [1] (setting [3]) was greater than 50%. Also, in assay [2] (setting [4]), the pest or weed control at 12 µg/well, 12 µg/well is greater than 50%.

For the compound `CCO[C@@H]1[C@@H](OC)[C@H](C)O[C@@H](O/N=C/c2ccc(/C=C/c3ccc(OC(F)(F)C(F)(F)F)cc3)cc2)[C@@H]1OC` [Compound 7, 4-[(E)-2-(4-Pentafluoroethyloxyphenyl)-vinyl]-benzaldehyde O-((2S,3R,4R,5S,6S)-4-ethoxy-3,5-dimethoxy-6-methyl-tetrahydropyran-2-yl)-oxime], the pest or weed control at 50 µg/cm2, 50 µg/cm2 in assay [1] (setting [3]) was greater than 50%. The pest or weed control at 12 µg/well, 12 µg/well in assay [2] (setting [4]) is less than 50%.

Turning to `CO[C@@H]1[C@@H](OC)[C@H](C)O[C@@H](O/N=C/c2ccc(/C=C/c3ccc(OC(F)(F)F)cc3)cc2)[C@@H]1OC` [Compound 8], the pest or weed control at 50 µg/cm2, 50 µg/cm2 in assay [1] (setting [3]) is greater than 50%. Also, the pest or weed control at 12 µg/well, 12 µg/well in assay [2] (setting [4]) is greater than 50%.

For `CO[C@@H]1[C@@H](OC)[C@H](C)O[C@@H](O/N=C/c2ccc(/C=C/c3cccc(C(F)(F)F)c3)cc2)[C@@H]1OC` [Compound 9, 4-[(E)-2-(3-Trifluoromethylphenyl)-vinyl]-benzaldehyde O-((2S,3R,4R,5S,6S)-3,4,5-trimethoxy-6-methyl-tetrahydropyran-2-yl)-oxime], in assay [1] (setting [3]), the pest or weed control at 50 µg/cm2, 50 µg/cm2 is greater than 50%. For the same compound, in assay [2] (setting [4]), the pest or weed control at 12 µg/well, 12 µg/well was less than 50%.

For `CCCO[C@@H]1[C@@H](OC)[C@H](C)O[C@@H](O/N=C/c2ccc(/C=C/c3ccc(C(F)(F)F)cc3)cc2)[C@@H]1OC` [Compound 10, 4-[(E)-2-(4-Trifluoromethylphenyl)-vinyl]-benzaldehyde O-((2S,3R,4R,5S,6S)-4-propoxy-3,5-dimethoxy-6-methyl-tetrahydropyran-2-yl)-oxime], in assay [1] (setting [3]), the pest or weed control at 50 µg/cm2, 50 µg/cm2 is greater than 50%. Besides, the pest or weed control at 12 µg/well, 12 µg/well in assay [2] (setting [4]) was greater than 50%.

Regarding `CCO[C@@H]1[C@@H](OC)[C@H](C)O[C@@H](O/N=C/c2ccc(/C=C/c3ccc(C(O)(C(F)(F)F)C(F)(F)F)cc3)cc2)[C@@H]1OC` [Compound 11, 4-{(E)-2-[4-(2,2,2-Trifluoro-1-hydroxy-1-trifluoromethyl-ethyl)-phenyl]-vinyl}-benzaldehyde O-((2S,3R,4R,5S,6S)-4-ethoxy-3,5-dimethoxy-6-methyl-tetrahydropyran-2-yl)-oxime], the pest or weed control at 50 µg/cm2, 50 µg/cm2 in assay [1] (setting [3]) is less than 50%. In assay [2] (setting [4]), the pest or weed control at 12 µg/well, 12 µg/well was greater than 50%.

With `CO[C@@H]1[C@@H](OC)[C@H](C)O[C@@H](O/N=C/c2ccc(/C=C/c3ccc(C(F)(F)F)cc3)cc2)[C@@H]1OC` [Compound 12, 4-[(E)-2-(4-Trifluoromethylphenyl)-vinyl]-benzaldehyde O-((2S,3R,4R,5S,6S)-3,4,5-trimethoxy-6-methyl-tetrahydropyran-2-yl)-oxime], in assay [1] (setting [3]), the pest or weed control at 50 µg/cm2, 50 µg/cm2 was greater than 50%. Moreover, the pest or weed control at 12 µg/well, 12 µg/well in assay [2] (setting [4]) is greater than 50%.

Regarding `CCO[C@@H]1[C@@H](OC)[C@H](C)O[C@@H](O/N=C/c2ccc(C#Cc3ccc(OC(F)(F)F)cc3)cc2)[C@@H]1OC` [Compound 13, 4-(4-trifluoromethoxyphenylethynyl)-benzaldehyde O-((2S,3R,4R,5S,6S)-4-ethoxy-3,5-dimethoxy-6-methyl-tetrahydropyran-2-yl)-oxime], in assay [1] (setting [3]), the pest or weed control at 50 µg/cm2, 50 µg/cm2 was greater than 50%. Moreover, the pest or weed control at 12 µg/well, 12 µg/well in assay [2] (setting [4]) is greater than 50%.

On to `CCO[C@@H]1[C@@H](OC)[C@H](C)O[C@@H](O/N=C/c2ccc(C#Cc3ccc(C(F)(F)F)cc3)cc2)[C@@H]1OC` [Compound 14, 4-(4-Trifluoromethylphenylethynyl)-benzaldehyde O-((2S,3R,4R,5S,6S)-4-ethoxy-3,5-dimethoxy-6-methyl-tetrahydropyran-2-yl)-oxime], for which the pest or weed control at 50 µg/cm2, 50 µg/cm2 in assay [1] (setting [3]) is greater than 50%. For the same compound, the pest or weed control at 12 µg/well, 12 µg/well in assay [2] (setting [4]) was greater than 50%.

For the compound `CO[C@@H]1[C@@H](OC)[C@H](C)O[C@@H](O/N=C/c2ccc(C#Cc3ccc(C(F)(F)F)cc3)cc2)[C@@H]1OC` [Compound 15, 4-(4-Trifluoromethylphenylethynyl)-benzaldehyde O-((3R,4R,5S,6S)-3,4,5-trimethoxy-6-methyl-tetrahydropyran-2-yl)-oxime], the pest or weed control at 50 µg/cm2, 50 µg/cm2 in assay [1] (setting [3]) is greater than 50%. Also, the pest or weed control at 12 µg/well, 12 µg/well in assay [2] (setting [4]) was greater than 50%.

Take `CCO[C@@H]1[C@@H](OC)[C@H](C)O[C@@H](OC(=O)Nc2ccc(/C=C/c3ccc(C(F)(F)F)cc3)cc2)[C@@H]1OC` [Compound 16, {4-[(E)-2-(4-trifluoromethylphenyl)-vinyl]-phenyl}-carbamic acid (2S,3R,4R,5S,6S)-4-ethoxy-3,5-dimethoxy-6-methyl-tetrahydropyran-2-yl ester]: the pest or weed control at 50 µg/cm2, 50 µg/cm2 in assay [1] was greater than 50%. In addition, the pest or weed control at 12 µg/well, 12 µg/well in assay [2] was greater than 50%.

With `CCOc1ccc(/C=C/c2ccc(NC(=O)O[C@@H]3O[C@@H](C)[C@H](OC)[C@@H](OC)[C@H]3OC)cc2)cc1` [Compound 17, {4-[(E)-2-(4-Ethoxyphenyl)-vinyl]-phenyl}-carbamic acid (2S,3R,4R,5S,6S)-3,4,5-tri-methoxy-6-methyl-tetrahydropyran-2-yl ester], the pest or weed control at 50 µg/cm2, 50 µg/cm2 in assay [1] is greater than 50%. Besides, in assay [2], the pest or weed control at 12 µg/well, 12 µg/well is less than 50%.

Regarding `CCCO[C@@H]1[C@@H](OC)[C@H](C)O[C@@H](OC(=O)Nc2ccc(/C=C/c3ccc(OC(F)(F)C(F)(F)F)cc3)cc2)[C@@H]1OC` [Compound 18, {4-[(E)-2-(4-Pentafluoroethyloxyphenyl)-vinyl]-phenyl}-carbamic acid (2S,3R,4R,5S,6S)-4-propoxy-3,5-dimethoxy-6-methyl-tetrahydropyran-2-yl ester], in assay [1], the pest or weed control at 50 µg/cm2, 50 µg/cm2 is greater than 50%. Further, the pest or weed control at 12 µg/well, 12 µg/well in assay [2] was less than 50%.

As for `CCO[C@@H]1[C@@H](OC)[C@H](C)O[C@@H](OC(=O)Nc2ccc(/N=N/c3cccc(OC(F)(F)F)c3)cc2)[C@@H]1OC` [Compound 19, [4-(3-trifluoromethoxyphenylazo)-phenyl]-carbamic acid (2S,3R,4R,5S,6S)-3,5-dimethoxy-4-ethoxy-6-methyl-tetrahydropyran-2-yl ester], the pest or weed control at 50 µg/cm2, 50 µg/cm2 in assay [1] was greater than 50%. In addition, the pest or weed control at 12 µg/well, 12 µg/well in assay [2] is greater than 50%.
